Measured values: patent US20260285875A1, “INHIBITORS OF PARG” (858 Therapeutics, Inc., priority 2023, published 2026)

molecular target: T1, cellular PARG (Homo sapiens, UniProt Q86W56); assay: Nuclear PAR accumulation assay (immunofluorescence high-content imaging, MMS-treated HeLa cells); type: cell-based; details: 1 hour compound then MMS 50 μg/mL for an additional hour
T1 construct: endogenous in cells; host or cells: HeLa
Outline: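 HeLa cells pretreated with compound for 1 h at 37° C, then given 50 μg/mL MMS for another hour. After methanol fixation, PAR was immunostained with DAPI nuclear counterstain; per-nucleus intensity and percent PAR-positive cells were imaged at 20× (≥1,000 cells/well). IC50 from four-parameter logistic fit.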

T1 sequence (Q86W56 whole entry): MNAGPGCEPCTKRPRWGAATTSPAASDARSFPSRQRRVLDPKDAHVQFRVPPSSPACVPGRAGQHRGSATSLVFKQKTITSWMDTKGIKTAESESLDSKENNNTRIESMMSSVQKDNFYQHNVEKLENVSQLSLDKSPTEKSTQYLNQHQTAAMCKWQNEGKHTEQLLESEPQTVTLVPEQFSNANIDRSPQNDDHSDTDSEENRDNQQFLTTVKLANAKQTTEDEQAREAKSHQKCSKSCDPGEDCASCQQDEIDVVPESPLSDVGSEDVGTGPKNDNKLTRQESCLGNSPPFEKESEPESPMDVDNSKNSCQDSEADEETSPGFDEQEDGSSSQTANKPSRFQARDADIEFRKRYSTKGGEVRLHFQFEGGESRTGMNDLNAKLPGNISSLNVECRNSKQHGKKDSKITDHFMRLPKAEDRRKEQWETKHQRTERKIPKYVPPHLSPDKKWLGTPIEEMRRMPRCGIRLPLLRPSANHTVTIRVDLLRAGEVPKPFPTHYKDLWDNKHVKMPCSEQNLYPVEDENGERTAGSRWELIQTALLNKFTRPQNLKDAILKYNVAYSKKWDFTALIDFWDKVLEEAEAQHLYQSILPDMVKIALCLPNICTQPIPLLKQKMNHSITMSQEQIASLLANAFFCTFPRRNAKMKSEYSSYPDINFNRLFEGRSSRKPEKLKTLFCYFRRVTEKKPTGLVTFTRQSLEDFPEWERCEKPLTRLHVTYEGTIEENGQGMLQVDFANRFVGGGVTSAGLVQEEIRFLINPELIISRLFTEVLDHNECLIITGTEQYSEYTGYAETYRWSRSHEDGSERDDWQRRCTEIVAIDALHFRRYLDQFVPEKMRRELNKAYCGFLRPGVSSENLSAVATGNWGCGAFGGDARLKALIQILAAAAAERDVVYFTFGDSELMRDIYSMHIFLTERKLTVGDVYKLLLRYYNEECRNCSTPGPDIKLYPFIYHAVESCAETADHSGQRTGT

`CN1C(=O)c2cc(S(=O)(=O)NC3(C)CC3)ccc2N2C1=NC[C@H]2C#Cc1cnc2cccnn12` [Example 149, (R)-1-(imidazo[1,2-b]pyridazin-3-ylethynyl)-4-methyl-N-(1-methylcyclopropyl)-5-oxo-1,2,4,5-tetrahydroimidazo[1,2-a]quinazoline-7-sulfonamide] and `CN1C(=O)c2cc(S(=O)(=O)NC3(C)CC3)ccc2N2C1=NCC2C#Cc1cnc2ccccn12` (centres unmarked) [Example 167, 1-(imidazo[1,2-a]pyridin-3-ylethynyl)-4-methyl-N-(1-methylcyclopropyl)-5-oxo-1,2,4,5-tetrahydroimidazo[1,2-a]quinazoline-7-sulfonamide] cannot be ordered by IC50: less than 100 nM for the first, less than 100 nM for the second.

`Cn1cc(CN2C(=O)c3cc(S(=O)(=O)NC4(C)CC4)ccc3N3C2=NCC3COc2ccon2)cn1` (centres unmarked) [Example 150, 1-((isoxazol-3-yloxy)methyl)-4-((1-methyl-1H-pyrazol-4-yl)methyl)-N-(1-methylcyclopropyl)-5-oxo-1,2,4,5-tetrahydroimidazo[1,2-a]quinazoline-7-sulfonamide] and `Cn1cc(CN2C(=O)c3cc(S(=O)(=O)NC4(C)CC4)ccc3N3C2=NCC3COc2ccccc2F)cn1` (centres unmarked) [Example 151, 1-((2-fluorophenoxy)methyl)-4-((1-methyl-1H-pyrazol-4-yl)methyl)-N-(1-methylcyclopropyl)-5-oxo-1,2,4,5-tetrahydroimidazo[1,2-a]quinazoline-7-sulfonamide] cannot be ordered by IC50: less than 100 nM for the first, less than 100 nM for the second.

`CN(C)C1(C#C[C@@H]2CN=C3N(CC4(F)CC4)C(=O)c4cc(S(=O)(=O)NC5(C)CC5)ccc4N32)CC1` [Example 152, (R)-1-((1-(dimethylamino)cyclopropyl)ethynyl)-4-((1-fluorocyclopropyl)methyl)-N-(1-methylcyclopropyl)-5-oxo-1,2,4,5-tetrahydroimidazo[1,2-a]quinazoline-7-sulfonamide] and `CSCC#C[C@@H]1CN=C2N(Cc3cnn(C)c3)C(=O)c3cc(S(=O)(=O)NC4(C)CC4)ccc3N21` [Example 164, (R)-4-((1-methyl-1H-pyrazol-4-yl)methyl)-N-(1-methylcyclopropyl)-1-(3-(methylthio)prop-1-yn-1-yl)-5-oxo-1,2,4,5-tetrahydroimidazo[1,2-a]quinazoline-7-sulfonamide] cannot be ordered by IC50: less than 100 nM for the first, less than 100 nM for the second.

`C#C[C@@H]1CN=C2N(Cc3cnc(C)o3)C(=O)c3cc(S(=O)(=O)NC4(C)CC4)ccc3N21` [Example 153, (R)-1-ethynyl-N-(1-methylcyclopropyl)-4-((2-methyloxazol-5-yl)methyl)-5-oxo-1,2,4,5-tetrahydroimidazo[1,2-a]quinazoline-7-sulfonamide] and `C#CCn1cc(CN2C(=O)c3cc(S(=O)(=O)NC4(C)CC4)ccc3N3C2=NC[C@H]3C)cn1` [Example 162, (R)-1-methyl-N-(1-methylcyclopropyl)-5-oxo-4-((1-(prop-2-yn-1-yl)-1H-pyrazol-4-yl)methyl)-1,2,4,5-tetrahydroimidazo[1,2-a]quinazoline-7-sulfonamide] cannot be ordered by IC50: less than 100 nM for the first, less than 100 nM for the second.

`Cn1cc(CN2C(=O)c3cc(S(=O)(=O)NC4(C)CC4)ccc3N3C[C@H](COCc4ccccc4)N=C23)cn1` [Example 154, (R)-2-((benzyloxy)methyl)-4-((1-methyl-1H-pyrazol-4-yl)methyl)-N-(1-methylcyclopropyl)-5-oxo-1,2,4,5-tetrahydroimidazo[1,2-a]quinazoline-7-sulfonamide] and `Cn1cc(CN2C(=O)c3cc(S(=O)(=O)NC4(C)CC4)ccc3N3C[C@H](c4ccccc4)N=C23)cn1` [Example 155, (S)-4-((1-methyl-1H-pyrazol-4-yl)methyl)-N-(1-methylcyclopropyl)-5-oxo-2-phenyl-1,2,4,5-tetrahydroimidazo[1,2-a]quinazoline-7-sulfonamide] cannot be ordered by IC50: less than 100 nM for the first, less than 100 nM for the second.

First: C#C[C@H]1CN2C(=N1)N(Cc1cnn(C)c1)C(=O)c1cc(S(=O)(=O)NC3(C)CC3)ccc12 [Example 156, (S)-2-ethynyl-4-((1-methyl-1H-pyrazol-4-yl)methyl)-N-(1-methylcyclopropyl)-5-oxo-1,2,4,5-tetrahydroimidazo[1,2-a]quinazoline-7-sulfonamide]
Second: C#C[C@@H]1[C@H](C)N=C2N(Cc3cnn(C)c3)C(=O)c3cc(S(=O)(=O)NC4(C)CC4)ccc3N21 [Example 173, (1R,2S)-1-ethynyl-2-methyl-4-((1-methyl-1H-pyrazol-4-yl)methyl)-N-(1-methylcyclopropyl)-5-oxo-1,2,4,5-tetrahydroimidazo[1,2-a]quinazoline-7-sulfonamide]
The IC50 of the first is higher: 100 to 1000 nM for the first, less than 100 nM for the second. The second is the more potent here.

First: Cn1cc(CN2C(=O)c3cc(S(=O)(=O)NC4(C)CC4)ccc3N3C2=N[C@H]2CCOC[C@H]23)cn1 [Example 157, (7aS,1laS)-6-((1-methyl-1H-pyrazol-4-yl)methyl)-N-(1-methylcyclopropyl)-5-oxo-6,7a,8,9,11,11a-hexahydro-5H-pyrano[4′,3′:4,5]imidazo[1,2-a]quinazoline-3-sulfonamide]
Second: Cn1cc(CN2C(=O)c3cc(S(=O)(=O)NC4(C)CC4)ccc3N3C2=N[C@H]2COCC[C@H]23)cn1 [Example 158, (7aR,11aR)-6-((1-methyl-1H-pyrazol-4-yl)methyl)-N-(1-methylcyclopropyl)-5-oxo-5,6,7a,10,11,11a-hexahydro-8H-pyrano[3′,4′:4,5]imidazo[1,2-a]quinazoline-3-sulfonamide]
The IC50 of the first is lower: less than 100 nM for the first, 100 to 1000 nM for the second.

First: Cn1cc(CN2C(=O)c3cc(S(=O)(=O)NC4(C)CC4)ccc3N3C2=N[C@H]2CNCC[C@H]23)cn1 [Example 159, (7aS,11aR)-6-((1-methyl-1H-pyrazol-4-yl)methyl)-N-(1-methylcyclopropyl)-5-oxo-5,6,7a,8,9,10,11,11a-octahydropyrido[3′,4′:4,5]imidazo[1,2-a]quinazoline-3-sulfonamide]
Second: Cn1cc(CN2C(=O)c3cc(S(=O)(=O)NC4(C)CC4)ccc3N3C2=N[C@H]2CCNC[C@H]23)cn1 [Example 160, (7aS,11aR)-6-((1-methyl-1H-pyrazol-4-yl)methyl)-N-(1-methylcyclopropyl)-5-oxo-5,6,7a,8,9,10,11,11a-octahydropyrido[4′,3′:4,5]imidazo[1,2-a]quinazoline-3-sulfonamide]
The IC50 of the first is higher: 1000 to 10000 nM for the first, 100 to 1000 nM for the second.

First: CN(C)C(=O)N1CC[C@@H]2N=C3N(Cc4cnn(C)c4)C(=O)c4cc(S(=O)(=O)NC5(C)CC5)ccc4N3[C@@H]2C1 [Example 161, (7aS,11aR)-N,N-dimethyl-6-((1-methyl-1H-pyrazol-4-yl)methyl)-3-(N-(1-methylcyclopropyl)sulfamoyl)-5-oxo-6,7a,8,9,11,1la-hexahydropyrido[4′,3′:4,5]imidazo[1,2-a]quinazoline-10(5H)-carboxamide]
Second: Cn1cc(CN2C(=O)c3cc(S(=O)(=O)NC4(C)CC4)ccc3N3C2=NC[C@H]3C#Cc2ccnn2C)cn1 [Example 165, (R)-4-((1-methyl-1H-pyrazol-4-yl)methyl)-1-((1-methyl-1H-pyrazol-5-yl)ethynyl)-N-(1-methylcyclopropyl)-5-oxo-1,2,4,5-tetrahydroimidazo[1,2-a]quinazoline-7-sulfonamide]
The IC50 of the first is higher: 1000 to 10000 nM for the first, less than 100 nM for the second.

`[2H]C([2H])(c1cnn(C)c1)N1C(=O)c2cc(S(=O)(=O)NC3(C)CC3)ccc2N2C1=NC[C@H]2C#Cc1cnn(C)n1` [Example 163, (R)-4-((1-methyl-1H-pyrazol-4-yl)methyl-d2)-1-((2-methyl-2H-1,2,3-triazol-4-yl)ethynyl)-N-(1-methylcyclopropyl)-5-oxo-1,2,4,5-tetrahydroimidazo[1,2-a]quinazoline-7-sulfonamide] and `Cn1cc(CN2C(=O)c3cc(S(=O)(=O)NC4(C)CC4)ccc3N3C2=NC[C@H]3C#Cc2cnnn2C)cn1` [Example 166, (R)-1-((1-methyl-1H-1,2,3-triazol-5-yl)ethynyl)-4-((1-methyl-1H-pyrazol-4-yl)methyl)-N-(1-methylcyclopropyl)-5-oxo-1,2,4,5-tetrahydroimidazo[1,2-a]quinazoline-7-sulfonamide] cannot be ordered by IC50: less than 100 nM for the first, less than 100 nM for the second.

`CN1C(=O)c2cc(S(=O)(=O)NC3(C)CC3)ccc2N2C1=NCC2C#Cc1c[nH]c2cnccc12` (centres unmarked) [Example 168, 1-((1H-pyrrolo[2,3-c]pyridin-3-yl)ethynyl)-4-methyl-N-(1-methylcyclopropyl)-5-oxo-1,2,4,5-tetrahydroimidazo[1,2-a]quinazoline-7-sulfonamide] and `CN1C(=O)c2cc(S(=O)(=O)NC3(C)CC3)ccc2N2C1=NCC2C#Cc1cc2cccnc2[nH]1` (centres unmarked) [Example 169, 1-((1H-pyrrolo[2,3-b]pyridin-2-yl)ethynyl)-4-methyl-N-(1-methylcyclopropyl)-5-oxo-1,2,4,5-tetrahydroimidazo[1,2-a]quinazoline-7-sulfonamide] fall in the same range of IC50: 100 to 1000 nM for the first, 100 to 1000 nM for the second.

`CN1C(=O)c2cc(S(=O)(=O)NC3(C)CC3)ccc2N2C1=NCC2C#Cc1ccnc2c1OCCO2` (centres unmarked) [Example 170, 1-((2,3-dihydro-[1,4]dioxino[2,3-b]pyridin-8-yl)ethynyl)-4-methyl-N-(1-methylcyclopropyl)-5-oxo-1,2,4,5-tetrahydroimidazo[1,2-a]quinazoline-7-sulfonamide] and `CN1C(=O)c2cc(S(=O)(=O)NC3(C)CC3)ccc2N2C1=NCC2C#Cc1ccc2nnn(C)c2c1` (centres unmarked) [Example 172, 4-methyl-1-((1-methyl-1H-benzo[d][1,2,3]triazol-6-yl)ethynyl)-N-(1-methylcyclopropyl)-5-oxo-1,2,4,5-tetrahydroimidazo[1,2-a]quinazoline-7-sulfonamide] cannot be ordered by IC50: less than 100 nM for the first, less than 100 nM for the second.

First: CN1C(=O)c2cc(S(=O)(=O)NC3(C)CC3)ccc2N2C1=NC[C@H]2C#Cc1cnc2ncccn12 [Example 171, (R)-1-(imidazo[1,2-a]pyrimidin-3-ylethynyl)-4-methyl-N-(1-methylcyclopropyl)-5-oxo-1,2,4,5-tetrahydroimidazo[1,2-a]quinazoline-7-sulfonamide]
Second: CN1C(=O)c2cc(S(=O)(=O)NC3(C)CC3)ccc2N2C1=NC[C@H]2C#Cc1c2ccccc2nn1C [Example 174, (R)-4-methyl-1-((2-methyl-2H-indazol-3-yl)ethynyl)-N-(1-methylcyclopropyl)-5-oxo-1,2,4,5-tetrahydroimidazo[1,2-a]quinazoline-7-sulfonamide]
The IC50 of the first is higher: 100 to 1000 nM for the first, less than 100 nM for the second.
